Measured values reported in patent publication US20230085307A1, “PYRIDAZINONE COMPOUND AND HERBICIDE” (NISSAN CHEMICAL CORPORATION, priority 2019, published 2023).

Experiments:
late watergrass = experiment: Test Example 1: herbicidal activity, application before weed generation under submerged conditions (Table 16, symbol A); format: in vivo, late watergrass (Echinochloa oryzicola); settings: 320 g/ha applied herbicide
Procedure, shortened: (§1)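 Submerged Wagner pots (alluvial soil, 4 cm water) sown with weed seeds and planted with 2.5-leaf rice seedlings; emulsifiable concentrate diluted in water applied to water surface on sowing day. Held in greenhouse at 25-30 °C; injury scored 0-5 by herbicidal rate after three weeks.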

Japanese bulrush = experiment: Test Example 1: herbicidal activity, application before weed generation under submerged conditions (Table 16, symbol B); format: in vivo, Japanese bulrush (Schoenoplectus juncoides); settings: 320 g/ha applied herbicide
Procedure, shortened: as §1

oval-leafed pondweed = experiment: Test Example 1: herbicidal activity, application before weed generation under submerged conditions (Table 16, symbol C); format: in vivo, oval-leafed pondweed (Monochoria vaginalis); settings: 320 g/ha applied herbicide
Procedure, shortened: as §1

barnyard grass [1] = experiment: Test Example 3: herbicidal effect by foliage application, Wagner pot (Table 18, symbol H); format: in vivo, barnyard grass (Echinochloa crus-galli); settings: 320 g/ha
Procedure, shortened: (§2)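 Plants were sown in alluvial soil held under 0.1–0.5 cm standing water and grown 14 days in a greenhouse at 25–30 °C. An emulsifiable formulation, water-diluted to the set dose, was then sprayed onto the foliage, and effects were scored three weeks later using previously defined criteria.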

Chinese sprangletop = experiment: Test Example 3: herbicidal effect by foliage application, Wagner pot (Table 18, symbol D); format: in vivo, chinese sprangletop (Leptochloa chinensis); settings: 320 g/ha
Procedure, shortened: as §2

rice flat sedge = experiment: Test Example 3: herbicidal effect by foliage application, Wagner pot (Table 18, symbol E); format: in vivo, rice flat sedge (Cyperus iria); settings: 320 g/ha
Procedure, shortened: as §2

southern crabgrass [2] = experiment: Test Example 4: herbicidal effect by soil treatment (Table 19, symbol F); format: in vivo, southern crabgrass (Digitaria ciliaris); settings: amount of applied herbicide 320 g/ha
Procedure, shortened: (§3)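 In this soil treatment, the formulated compound reached the seeds only through the soil: seeds were buried about 1.5 cm deep in sterilized diluvial soil, then the diluted emulsion was sprayed over the surface. After three weeks at 25° C. to 30° C. in a greenhouse, effects were graded on criteria from an earlier test.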

green foxtail [3] = experiment: Test Example 4: herbicidal effect by soil treatment (Table 19, symbol G); format: in vivo, green foxtail (Setaria viridis); settings: amount of applied herbicide 320 g/ha
Procedure, shortened: as §3

barnyard grass [4] = experiment: Test Example 4: herbicidal effect by soil treatment (Table 19, symbol H); format: in vivo, barnyard grass (Echinochloa crus-galli); settings: amount of applied herbicide 320 g/ha
Procedure, shortened: as §3

wild oat [5] = experiment: Test Example 4: herbicidal effect by soil treatment (Table 19, symbol I); format: in vivo, wild oat (Avena fatua); settings: amount of applied herbicide 320 g/ha
Procedure, shortened: as §3

blackgrass [6] = experiment: Test Example 4: herbicidal effect by soil treatment (Table 19, symbol J); format: in vivo, blackgrass (Alopecurus myosuroides); settings: amount of applied herbicide 320 g/ha
Procedure, shortened: as §3

Italian ryegrass [7] = experiment: Test Example 4: herbicidal effect by soil treatment (Table 19, symbol K); format: in vivo, Italian ryegrass (Lolium multiflorum); settings: amount of applied herbicide 320 g/ha
Procedure, shortened: as §3

windgrass [8] = experiment: Test Example 4: herbicidal effect by soil treatment (Table 19, symbol L); format: in vivo, windgrass (Apera spica-venti); settings: amount of applied herbicide 320 g/ha
Procedure, shortened: as §3

velvetleaf [9] = experiment: Test Example 4: herbicidal effect by soil treatment (Table 19, symbol M); format: in vivo, velvetleaf (Abutilon theophrasti); settings: amount of applied herbicide 320 g/ha
Procedure, shortened: as §3

redroot pigweed [10] = experiment: Test Example 4: herbicidal effect by soil treatment (Table 19, symbol N); format: in vivo, redroot pigweed (Amaranthus retroflexus); settings: amount of applied herbicide 320 g/ha
Procedure, shortened: as §3

lambsquarters [11] = experiment: Test Example 4: herbicidal effect by soil treatment (Table 19, symbol O); format: in vivo, lambsquarters (Chenopodium album); settings: amount of applied herbicide 320 g/ha
Procedure, shortened: as §3

chickweed [12] = experiment: Test Example 4: herbicidal effect by soil treatment (Table 19, symbol P); format: in vivo, common chickweed (Stellaria media); settings: amount of applied herbicide 320 g/ha
Procedure, shortened: as §3

false cleavers [13] = experiment: Test Example 4: herbicidal effect by soil treatment (Table 19, symbol Q); format: in vivo, false cleavers (Galium spurium); settings: amount of applied herbicide 320 g/ha
Procedure, shortened: as §3

persian speedwell [14] = experiment: Test Example 4: herbicidal effect by soil treatment (Table 19, symbol R); format: in vivo, Persian speedwell (Veronica persica); settings: amount of applied herbicide 320 g/ha
Procedure, shortened: as §3

southern crabgrass [15] = experiment: Test Example 5: herbicidal effect by foliage application, plastic box (Table 20, symbol F); format: in vivo, southern crabgrass (Digitaria ciliaris); settings: foliage application, 320 g/ha, three weeks after application
Procedure, shortened: (§4)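 Plants were sown into sterilized diluvial soil under about 1.5 cm cover and kept in a greenhouse at 25° C. to 30° C. Fourteen days on, foliage received an even spray of the diluted emulsion. Herbicidal or crop effect was judged three weeks afterwards.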

green foxtail [16] = experiment: Test Example 5: herbicidal effect by foliage application, plastic box (Table 20, symbol G); format: in vivo, green foxtail (Setaria viridis); settings: foliage application, 320 g/ha, three weeks after application
Procedure, shortened: as §4

barnyard grass [17] = experiment: Test Example 5: herbicidal effect by foliage application, plastic box (Table 20, symbol H); format: in vivo, barnyard grass (Echinochloa crus-galli); settings: foliage application, 320 g/ha, three weeks after application
Procedure, shortened: as §4

wild oat [18] = experiment: Test Example 5: herbicidal effect by foliage application, plastic box (Table 20, symbol I); format: in vivo, wild oat (Avena fatua); settings: foliage application, 320 g/ha, three weeks after application
Procedure, shortened: as §4

blackgrass [19] = experiment: Test Example 5: herbicidal effect by foliage application, plastic box (Table 20, symbol J); format: in vivo, blackgrass (Alopecurus myosuroides); settings: foliage application, 320 g/ha, three weeks after application
Procedure, shortened: as §4

Italian ryegrass [20] = experiment: Test Example 5: herbicidal effect by foliage application, plastic box (Table 20, symbol K); format: in vivo, Italian ryegrass (Lolium multiflorum); settings: foliage application, 320 g/ha, three weeks after application
Procedure, shortened: as §4

windgrass [21] = experiment: Test Example 5: herbicidal effect by foliage application, plastic box (Table 20, symbol L); format: in vivo, windgrass (Apera spica-venti); settings: foliage application, 320 g/ha, three weeks after application
Procedure, shortened: as §4

velvetleaf [22] = experiment: Test Example 5: herbicidal effect by foliage application, plastic box (Table 20, symbol M); format: in vivo, velvetleaf (Abutilon theophrasti); settings: foliage application, 320 g/ha, three weeks after application
Procedure, shortened: as §4

redroot pigweed [23] = experiment: Test Example 5: herbicidal effect by foliage application, plastic box (Table 20, symbol N); format: in vivo, redroot pigweed (Amaranthus retroflexus); settings: foliage application, 320 g/ha, three weeks after application
Procedure, shortened: as §4

lambsquarters [24] = experiment: Test Example 5: herbicidal effect by foliage application, plastic box (Table 20, symbol O); format: in vivo, lambsquarters (Chenopodium album); settings: foliage application, 320 g/ha, three weeks after application
Procedure, shortened: as §4

chickweed [25] = experiment: Test Example 5: herbicidal effect by foliage application, plastic box (Table 20, symbol P); format: in vivo, common chickweed (Stellaria media); settings: foliage application, 320 g/ha, three weeks after application
Procedure, shortened: as §4

false cleavers [26] = experiment: Test Example 5: herbicidal effect by foliage application, plastic box (Table 20, symbol Q); format: in vivo, false cleavers (Galium spurium); settings: foliage application, 320 g/ha, three weeks after application
Procedure, shortened: as §4

persian speedwell [27] = experiment: Test Example 5: herbicidal effect by foliage application, plastic box (Table 20, symbol R); format: in vivo, Persian speedwell (Veronica persica); settings: foliage application, 320 g/ha, three weeks after application
Procedure, shortened: as §4

Row | SMILES | Herbicidal effect on A: late watergrass (grade 0-5) (late watergrass) | Herbicidal effect on B: Japanese bulrush (grade 0-5) (Japanese bulrush) | Herbicidal effect on C: oval-leafed pondweed (grade 0-5) (oval-leafed pondweed) | herbicidal effect on H (barnyard grass), rating 0-5 (barnyard grass [1]) | herbicidal effect on D (Chinese sprangletop), rating 0-5 (Chinese sprangletop) | herbicidal effect on E (rice flat sedge), rating 0-5 (rice flat sedge) | herbicidal effect rating, F: southern crabgrass (southern crabgrass [2]) | herbicidal effect rating, G: green foxtail (green foxtail [3]) | herbicidal effect rating, H: barnyard grass (barnyard grass [4]) | herbicidal effect rating, I: wild oat (wild oat [5]) | herbicidal effect rating, J: blackgrass (blackgrass [6]) | herbicidal effect rating, K: Italian ryegrass (Italian ryegrass [7]) | herbicidal effect rating, L: windgrass (windgrass [8]) | herbicidal effect rating, M: velvetleaf (velvetleaf [9]) | herbicidal effect rating, N: redroot pigweed (redroot pigweed [10]) | herbicidal effect rating, O: lambsquarters (lambsquarters [11]) | herbicidal effect rating, P: chickweed (chickweed [12]) | herbicidal effect rating, Q: false cleavers (false cleavers [13]) | herbicidal effect rating, R: persian speedwell (persian speedwell [14]) | herbicidal effect grade, F: southern crabgrass (southern crabgrass [15]) | also measured
1 | CCCC(=O)Oc1c(C)nn(C)c(=O)c1-c1c(-c2ccc(N(C)C)cc2)sc2ccccc12 [1-040] | 3 (Herbicidal rate of 40% or more and less than 70%) | 3 (Herbicidal rate of 40% or more and less than 70%) | 1 (Herbicidal rate of 5% or more and less than 20%) | 4 (Herbicidal rate of 70% or more and less than 90%) | 3 (Herbicidal rate of 40% or more and less than 70%) | 5 (Herbicidal rate of 90% or more (almost completely withered)) | 0 (Herbicidal rate of 5% or less (almost no effect)) | 0 (Herbicidal rate of 5% or less (almost no effect)) | 0 (Herbicidal rate of 5% or less (almost no effect)) | 0 (Herbicidal rate of 5% or less (almost no effect)) | 0 (Herbicidal rate of 5% or less (almost no effect)) | 3 (Herbicidal rate of 40% or more and less than 70%) | 0 (Herbicidal rate of 5% or less (almost no effect)) | 0 (Herbicidal rate of 5% or less (almost no effect)) | 0 (Herbicidal rate of 5% or less (almost no effect)) | 0 (Herbicidal rate of 5% or less (almost no effect)) | 0 (Herbicidal rate of 5% or less (almost no effect)) | 0 (Herbicidal rate of 5% or less (almost no effect)) | 0 (Herbicidal rate of 5% or less (almost no effect)) | 4 (Herbicidal rate of 70% or more and less than 90%) | herbicidal effect grade, G: green foxtail (green foxtail [16]): 5 (Herbicidal rate of 90% or more (almost completely withered)); herbicidal effect grade, H: barnyard grass (barnyard grass [17]): 3 (Herbicidal rate of 40% or more and less than 70%); herbicidal effect grade, I: wild oat (wild oat [18]): 0 (Herbicidal rate of 5% or less (almost no effect)); herbicidal effect grade, J: blackgrass (blackgrass [19]): 0 (Herbicidal rate of 5% or less (almost no effect)); herbicidal effect grade, K: Italian ryegrass (Italian ryegrass [20]): 4 (Herbicidal rate of 70% or more and less than 90%); herbicidal effect grade, L: windgrass (windgrass [21]): 0 (Herbicidal rate of 5% or less (almost no effect)); herbicidal effect grade, M: velvetleaf (velvetleaf [22]): 5 (Herbicidal rate of 90% or more (almost completely withered)); herbicidal effect grade, N: redroot pigweed (redroot pigweed [23]): 5 (Herbicidal rate of 90% or more (almost completely withered)); herbicidal effect grade, O: lambsquarters (lambsquarters [24]): 4 (Herbicidal rate of 70% or more and less than 90%); herbicidal effect grade, P: chickweed (chickweed [25]): 5 (Herbicidal rate of 90% or more (almost completely withered)); herbicidal effect grade, Q: false cleavers (false cleavers [26]): 3 (Herbicidal rate of 40% or more and less than 70%); herbicidal effect grade, R: persian speedwell (persian speedwell [27]): 5 (Herbicidal rate of 90% or more (almost completely withered))
2 | COc1ccc(-c2sc3ccccc3c2-c2c(O)c(C)nn(C)c2=O)cc1F [1-049] | 4 (Herbicidal rate of 70% or more and less than 90%) | 1 (Herbicidal rate of 5% or more and less than 20%) | 0 (Herbicidal rate of 5% or less (almost no effect)) | 5 (Herbicidal rate of 90% or more (almost completely withered)) | 3 (Herbicidal rate of 40% or more and less than 70%) | 5 (Herbicidal rate of 90% or more (almost completely withered)) | 2 (Herbicidal rate of 20% or more and less than 40%) | 3 (Herbicidal rate of 40% or more and less than 70%) | 3 (Herbicidal rate of 40% or more and less than 70%) | 0 (Herbicidal rate of 5% or less (almost no effect)) | 0 (Herbicidal rate of 5% or less (almost no effect)) | 0 (Herbicidal rate of 5% or less (almost no effect)) | 0 (Herbicidal rate of 5% or less (almost no effect)) | 0 (Herbicidal rate of 5% or less (almost no effect)) | 4 (Herbicidal rate of 70% or more and less than 90%) | 3 (Herbicidal rate of 40% or more and less than 70%) | 3 (Herbicidal rate of 40% or more and less than 70%) | 0 (Herbicidal rate of 5% or less (almost no effect)) | 4 (Herbicidal rate of 70% or more and less than 90%) | 4 (Herbicidal rate of 70% or more and less than 90%) | herbicidal effect grade, G: green foxtail (green foxtail [16]): 4 (Herbicidal rate of 70% or more and less than 90%); herbicidal effect grade, H: barnyard grass (barnyard grass [17]): 4 (Herbicidal rate of 70% or more and less than 90%); herbicidal effect grade, I: wild oat (wild oat [18]): 1 (Herbicidal rate of 5% or more and less than 20%); herbicidal effect grade, J: blackgrass (blackgrass [19]): 0 (Herbicidal rate of 5% or less (almost no effect)); herbicidal effect grade, K: Italian ryegrass (Italian ryegrass [20]): 4 (Herbicidal rate of 70% or more and less than 90%); herbicidal effect grade, L: windgrass (windgrass [21]): 0 (Herbicidal rate of 5% or less (almost no effect)); herbicidal effect grade, M: velvetleaf (velvetleaf [22]): 5 (Herbicidal rate of 90% or more (almost completely withered)); herbicidal effect grade, N: redroot pigweed (redroot pigweed [23]): 3 (Herbicidal rate of 40% or more and less than 70%); herbicidal effect grade, O: lambsquarters (lambsquarters [24]): 3 (Herbicidal rate of 40% or more and less than 70%); herbicidal effect grade, P: chickweed (chickweed [25]): 5 (Herbicidal rate of 90% or more (almost completely withered)); herbicidal effect grade, Q: false cleavers (false cleavers [26]): 3 (Herbicidal rate of 40% or more and less than 70%); herbicidal effect grade, R: persian speedwell (persian speedwell [27]): 5 (Herbicidal rate of 90% or more (almost completely withered))
